Experimental data from ChEMBL document CHEMBL4507280 (2021).

Experiments:
[1] = biological target: Serine/threonine-protein kinase PAK 5 (Homo sapiens) (UniProt Q9P286); details: Compound concentration 1000.0 nM
[2] = biological target: Serine/threonine-protein kinase Nek2 (Homo sapiens) (UniProt P51955); details: Compound concentration 1000.0 nM
[3] = biological target: Serine/threonine-protein kinase 35 (Homo sapiens) (UniProt Q8TDR2); details: Compound concentration 1000.0 nM
[4] = biological target: D(3) dopamine receptor (Homo sapiens) (UniProt P35462); details: Compound concentration 10.0 uM
[5] = biological target: Inhibitor of nuclear factor kappa-B kinase subunit epsilon (Homo sapiens) (UniProt Q14164); details: Compound concentration 1000.0 nM
[6] = biological target: Calcium/calmodulin-dependent protein kinase type IV (Homo sapiens) (UniProt Q16566); details: Compound concentration 1000.0 nM
[7] = biological target: Mitogen-activated protein kinase 10 (Homo sapiens) (UniProt P53779); details: Compound concentration 1000.0 nM
[8] = tested on: Tyrosine-protein kinase ABL1 (Homo sapiens), P00519 [Q252H]; details: Compound concentration 1000.0 nM
[9] = biological target: Calcium/calmodulin-dependent protein kinase type II subunit alpha (Homo sapiens) (UniProt Q9UQM7); details: Compound concentration 1000.0 nM
[10] = biological target: Serine/threonine-protein kinase PAK 2 (Homo sapiens) (UniProt Q13177); details: Compound concentration 1000.0 nM
[11] = biological target: MAP kinase-interacting serine/threonine-protein kinase 1 (Homo sapiens) (UniProt Q9BUB5); details: Compound concentration 1000.0 nM
[12] = biological target: Mitogen-activated protein kinase 14 (Homo sapiens) (UniProt Q16539); details: Compound concentration 1000.0 nM
[13] = tested on: Fibroblast growth factor receptor 3 (Homo sapiens), P22607 [G697C]; details: Compound concentration 1000.0 nM
[14] = biological target: Phosphatidylinositol 4-phosphate 3-kinase C2 domain-containing subunit beta (Homo sapiens) (UniProt O00750); details: Compound concentration 1000.0 nM
[15] = biological target: TGF-beta receptor type-1 (Homo sapiens) (UniProt P36897); details: Compound concentration 1000.0 nM
[16] = biological target: Serine/threonine-protein kinase SIK1 (Homo sapiens) (UniProt P57059); details: Compound concentration 1000.0 nM
[17] = biological target: Protein kinase C iota type (Homo sapiens) (UniProt P41743); details: Compound concentration 1000.0 nM
[18] = biological target: D(1A) dopamine receptor (Homo sapiens) (UniProt P21728); details: Compound concentration 10.0 uM
[19] = biological target: Mitogen-activated protein kinase 7 (Homo sapiens) (UniProt Q13164); details: Compound concentration 1000.0 nM
[20] = biological target: TRAF2 and NCK-interacting protein kinase (Homo sapiens) (UniProt Q9UKE5); details: Compound concentration 1000.0 nM
[21] = biological target: Ribosomal protein S6 kinase alpha-4 (Homo sapiens) (UniProt O75676); details: Compound concentration 1000.0 nM
[22] = biological target: Serine/threonine-protein kinase MRCK alpha (Homo sapiens) (UniProt Q5VT25); details: Compound concentration 1000.0 nM
[23] = biological target: Tyrosine-protein kinase receptor UFO (Homo sapiens) (UniProt P30530); details: Compound concentration 1000.0 nM
[24] = biological target: Serine/threonine-protein kinase NIM1 (Homo sapiens) (UniProt Q8IY84); details: Compound concentration 1000.0 nM
[25] = biological target: Vascular endothelial growth factor receptor 1 (Homo sapiens) (UniProt P17948); details: Compound concentration 1000.0 nM
[26] = biological target: Casein kinase I isoform delta (Homo sapiens) (UniProt P48730); details: Compound concentration 1000.0 nM
[27] = biological target: TGF-beta receptor type-2 (Homo sapiens) (UniProt P37173); details: Compound concentration 1000.0 nM
[28] = biological target: Serine/threonine-protein kinase 17A (Homo sapiens) (UniProt Q9UEE5); details: Compound concentration 1000.0 nM
[29] = biological target: Muscle, skeletal receptor tyrosine-protein kinase (Homo sapiens) (UniProt O15146); details: Compound concentration 1000.0 nM
[30] = biological target: Receptor-interacting serine/threonine-protein kinase 1 (Homo sapiens) (UniProt Q13546); details: Compound concentration 1000.0 nM
[31] = tested on: Tyrosine-protein kinase ABL1 (Homo sapiens), P00519 [E255K]; details: Compound concentration 1000.0 nM
[32] = biological target: Casein kinase II subunit alpha (Homo sapiens) (UniProt P68400); details: Compound concentration 1000.0 nM
[33] = biological target: Serine/threonine-protein kinase tousled-like 2 (Homo sapiens) (UniProt Q86UE8); details: Compound concentration 1000.0 nM
[34] = biological target: NUAK family SNF1-like kinase 1 (Homo sapiens) (UniProt O60285); details: Compound concentration 1000.0 nM
[35] = biological target: Cyclin-dependent kinase 13 (Homo sapiens) (UniProt Q14004); details: Compound concentration 1000.0 nM
[36] = tested on: Phosphatidylinositol 4,5-bisphosphate 3-kinase catalytic subunit alpha isoform (Homo sapiens), P42336 [E542K]; details: Compound concentration 1000.0 nM
[37] = biological target: Non-receptor tyrosine-protein kinase TNK1 (Homo sapiens) (UniProt Q13470); details: Compound concentration 1000.0 nM
[38] = biological target: Myosin light chain kinase (Homo sapiens) (UniProt Q32MK0); details: Compound concentration 1000.0 nM
[39] = biological target: Non-receptor tyrosine-protein kinase TYK2 (Homo sapiens) (UniProt P29597); details: Compound concentration 1000.0 nM
[40] = biological target: SNF-related serine/threonine-protein kinase (Homo sapiens) (UniProt Q9NRH2); details: Compound concentration 1000.0 nM
[41] = biological target: Serine/threonine-protein kinase pim-1 (Homo sapiens) (UniProt P11309); details: Compound concentration 1000.0 nM
[42] = biological target: Phosphatidylinositol 4,5-bisphosphate 3-kinase catalytic subunit gamma isoform (Homo sapiens) (UniProt P48736); details: Compound concentration 1000.0 nM
[43] = biological target: Transient receptor potential cation channel subfamily M member 6 (Homo sapiens) (UniProt Q9BX84); details: Compound concentration 1000.0 nM
[44] = biological target: Ephrin type-A receptor 7 (Homo sapiens) (UniProt Q15375); details: Compound concentration 1000.0 nM
[45] = biological target: Insulin-like growth factor 1 receptor (Homo sapiens) (UniProt P08069); details: Compound concentration 1000.0 nM

Chain of Non-receptor tyrosine-protein kinase TYK2 (Homo sapiens) (P29597 whole entry): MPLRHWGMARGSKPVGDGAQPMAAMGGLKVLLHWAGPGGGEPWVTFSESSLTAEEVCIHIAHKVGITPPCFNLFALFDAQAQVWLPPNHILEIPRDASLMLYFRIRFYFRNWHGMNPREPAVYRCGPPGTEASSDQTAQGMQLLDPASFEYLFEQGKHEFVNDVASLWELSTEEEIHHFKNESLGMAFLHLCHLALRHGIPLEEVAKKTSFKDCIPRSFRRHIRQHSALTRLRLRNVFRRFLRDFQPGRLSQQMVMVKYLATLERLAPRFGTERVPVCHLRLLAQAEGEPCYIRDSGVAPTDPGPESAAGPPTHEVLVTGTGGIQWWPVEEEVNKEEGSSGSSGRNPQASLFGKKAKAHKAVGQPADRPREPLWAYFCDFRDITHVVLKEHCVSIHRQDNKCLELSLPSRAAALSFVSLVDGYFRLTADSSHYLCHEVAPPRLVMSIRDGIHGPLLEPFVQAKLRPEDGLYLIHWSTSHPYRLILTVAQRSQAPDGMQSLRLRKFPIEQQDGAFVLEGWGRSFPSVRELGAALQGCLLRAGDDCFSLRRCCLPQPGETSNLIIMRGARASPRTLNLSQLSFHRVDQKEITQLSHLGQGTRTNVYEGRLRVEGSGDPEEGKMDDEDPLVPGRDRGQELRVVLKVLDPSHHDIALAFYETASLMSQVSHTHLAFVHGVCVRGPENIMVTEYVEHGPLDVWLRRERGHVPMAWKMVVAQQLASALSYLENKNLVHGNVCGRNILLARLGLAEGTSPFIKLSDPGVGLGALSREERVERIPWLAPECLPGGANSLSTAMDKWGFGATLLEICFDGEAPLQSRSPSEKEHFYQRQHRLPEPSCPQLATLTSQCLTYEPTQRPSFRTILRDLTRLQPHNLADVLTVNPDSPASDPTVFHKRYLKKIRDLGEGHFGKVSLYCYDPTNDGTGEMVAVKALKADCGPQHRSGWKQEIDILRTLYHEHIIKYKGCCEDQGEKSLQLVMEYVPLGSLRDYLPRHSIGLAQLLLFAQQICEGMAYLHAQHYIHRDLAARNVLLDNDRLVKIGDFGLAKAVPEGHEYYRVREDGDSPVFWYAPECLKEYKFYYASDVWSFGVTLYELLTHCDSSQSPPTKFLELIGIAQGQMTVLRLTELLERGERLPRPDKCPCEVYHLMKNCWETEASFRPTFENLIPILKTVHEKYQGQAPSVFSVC
Chain of Protein kinase C iota type (Homo sapiens) (P41743 whole entry): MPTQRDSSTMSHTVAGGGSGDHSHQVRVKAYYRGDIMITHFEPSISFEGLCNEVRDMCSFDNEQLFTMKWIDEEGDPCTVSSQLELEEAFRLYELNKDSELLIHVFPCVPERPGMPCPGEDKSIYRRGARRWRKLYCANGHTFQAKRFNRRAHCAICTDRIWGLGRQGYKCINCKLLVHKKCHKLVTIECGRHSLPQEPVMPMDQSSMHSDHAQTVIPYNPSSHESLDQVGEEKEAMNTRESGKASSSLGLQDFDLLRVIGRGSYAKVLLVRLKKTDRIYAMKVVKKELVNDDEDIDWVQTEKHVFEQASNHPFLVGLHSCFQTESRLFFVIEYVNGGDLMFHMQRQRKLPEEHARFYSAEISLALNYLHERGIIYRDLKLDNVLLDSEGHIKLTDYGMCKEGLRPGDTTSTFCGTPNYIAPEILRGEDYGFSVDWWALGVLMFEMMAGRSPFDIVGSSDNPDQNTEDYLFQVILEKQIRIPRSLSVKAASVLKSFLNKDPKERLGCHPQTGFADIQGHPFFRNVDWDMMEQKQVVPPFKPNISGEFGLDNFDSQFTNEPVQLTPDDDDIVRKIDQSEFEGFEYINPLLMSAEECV
Chain of Casein kinase II subunit alpha (Homo sapiens) (P68400 whole entry, looked up): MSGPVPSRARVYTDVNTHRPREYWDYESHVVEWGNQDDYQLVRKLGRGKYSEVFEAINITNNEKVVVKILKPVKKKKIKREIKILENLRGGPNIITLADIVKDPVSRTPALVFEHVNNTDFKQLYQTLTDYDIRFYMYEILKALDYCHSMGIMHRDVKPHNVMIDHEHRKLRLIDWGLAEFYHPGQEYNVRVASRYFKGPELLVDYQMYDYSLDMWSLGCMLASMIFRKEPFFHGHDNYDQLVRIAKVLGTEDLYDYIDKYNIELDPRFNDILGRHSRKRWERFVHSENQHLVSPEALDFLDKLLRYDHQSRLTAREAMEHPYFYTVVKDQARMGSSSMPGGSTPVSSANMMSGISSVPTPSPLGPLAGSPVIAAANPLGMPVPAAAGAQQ
Chain of Myosin light chain kinase (Homo sapiens) (Q32MK0 whole entry): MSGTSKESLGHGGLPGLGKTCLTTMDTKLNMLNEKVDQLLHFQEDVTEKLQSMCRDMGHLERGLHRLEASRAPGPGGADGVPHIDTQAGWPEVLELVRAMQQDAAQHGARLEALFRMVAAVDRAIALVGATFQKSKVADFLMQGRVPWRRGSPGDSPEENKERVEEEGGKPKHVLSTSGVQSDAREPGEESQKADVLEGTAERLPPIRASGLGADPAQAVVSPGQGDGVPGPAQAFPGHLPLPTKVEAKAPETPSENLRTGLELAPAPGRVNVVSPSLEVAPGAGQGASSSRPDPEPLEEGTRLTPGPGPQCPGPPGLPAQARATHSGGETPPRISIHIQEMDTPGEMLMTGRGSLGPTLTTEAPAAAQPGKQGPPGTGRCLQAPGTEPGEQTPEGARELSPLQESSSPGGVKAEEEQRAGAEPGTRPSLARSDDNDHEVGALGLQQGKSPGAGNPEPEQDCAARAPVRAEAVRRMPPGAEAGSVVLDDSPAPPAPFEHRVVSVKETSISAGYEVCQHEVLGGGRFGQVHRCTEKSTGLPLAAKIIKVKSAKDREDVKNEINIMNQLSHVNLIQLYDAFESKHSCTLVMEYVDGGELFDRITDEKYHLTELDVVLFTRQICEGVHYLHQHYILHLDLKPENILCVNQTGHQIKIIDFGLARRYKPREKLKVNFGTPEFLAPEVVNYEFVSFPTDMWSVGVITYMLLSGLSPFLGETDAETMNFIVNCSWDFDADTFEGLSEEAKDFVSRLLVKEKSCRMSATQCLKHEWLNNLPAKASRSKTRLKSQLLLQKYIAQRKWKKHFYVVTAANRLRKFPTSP
Chain of Mitogen-activated protein kinase 14 (Homo sapiens) (Q16539 whole entry): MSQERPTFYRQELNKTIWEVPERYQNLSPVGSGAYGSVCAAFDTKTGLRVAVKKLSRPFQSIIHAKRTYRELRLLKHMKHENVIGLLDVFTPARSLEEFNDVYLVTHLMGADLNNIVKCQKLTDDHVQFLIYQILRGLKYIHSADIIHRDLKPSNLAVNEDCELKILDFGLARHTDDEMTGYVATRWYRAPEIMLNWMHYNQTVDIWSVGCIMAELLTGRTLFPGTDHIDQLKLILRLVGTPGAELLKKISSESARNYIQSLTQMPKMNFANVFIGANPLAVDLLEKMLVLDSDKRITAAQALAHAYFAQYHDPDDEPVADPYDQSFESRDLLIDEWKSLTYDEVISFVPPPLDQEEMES
Chain of Serine/threonine-protein kinase pim-1 (Homo sapiens) (P11309 whole entry, looked up, canonical isoform): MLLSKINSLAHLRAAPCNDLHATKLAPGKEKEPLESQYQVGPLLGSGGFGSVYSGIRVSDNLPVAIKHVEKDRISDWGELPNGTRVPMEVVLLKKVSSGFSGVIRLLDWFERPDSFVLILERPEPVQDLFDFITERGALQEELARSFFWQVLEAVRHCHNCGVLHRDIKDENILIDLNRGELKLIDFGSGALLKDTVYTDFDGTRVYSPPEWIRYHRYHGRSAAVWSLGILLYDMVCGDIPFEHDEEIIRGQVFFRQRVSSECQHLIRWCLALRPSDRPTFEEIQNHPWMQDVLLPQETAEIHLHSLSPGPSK
Chain of SNF-related serine/threonine-protein kinase (Homo sapiens) (Q9NRH2 whole entry): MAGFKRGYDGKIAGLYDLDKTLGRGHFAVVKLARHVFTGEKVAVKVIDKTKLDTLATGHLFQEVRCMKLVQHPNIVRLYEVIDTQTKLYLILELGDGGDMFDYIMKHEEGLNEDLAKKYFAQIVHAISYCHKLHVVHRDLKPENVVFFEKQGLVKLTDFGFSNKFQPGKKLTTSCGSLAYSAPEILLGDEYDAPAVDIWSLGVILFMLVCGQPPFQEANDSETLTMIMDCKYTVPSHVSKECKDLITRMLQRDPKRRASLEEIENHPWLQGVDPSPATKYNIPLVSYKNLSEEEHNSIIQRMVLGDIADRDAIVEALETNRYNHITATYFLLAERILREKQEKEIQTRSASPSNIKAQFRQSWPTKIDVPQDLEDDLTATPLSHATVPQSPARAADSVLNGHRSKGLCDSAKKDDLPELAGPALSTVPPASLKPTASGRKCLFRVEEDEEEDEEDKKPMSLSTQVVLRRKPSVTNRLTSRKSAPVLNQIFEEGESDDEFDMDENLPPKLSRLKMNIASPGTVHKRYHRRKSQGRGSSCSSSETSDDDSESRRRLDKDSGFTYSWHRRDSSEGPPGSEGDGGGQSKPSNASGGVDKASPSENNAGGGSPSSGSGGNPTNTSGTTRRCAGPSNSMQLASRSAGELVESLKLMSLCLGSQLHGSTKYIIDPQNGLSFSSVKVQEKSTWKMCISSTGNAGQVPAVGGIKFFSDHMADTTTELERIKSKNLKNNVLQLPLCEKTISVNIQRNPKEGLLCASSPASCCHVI
Chain of Casein kinase I isoform delta (Homo sapiens) (P48730 whole entry, looked up, canonical isoform): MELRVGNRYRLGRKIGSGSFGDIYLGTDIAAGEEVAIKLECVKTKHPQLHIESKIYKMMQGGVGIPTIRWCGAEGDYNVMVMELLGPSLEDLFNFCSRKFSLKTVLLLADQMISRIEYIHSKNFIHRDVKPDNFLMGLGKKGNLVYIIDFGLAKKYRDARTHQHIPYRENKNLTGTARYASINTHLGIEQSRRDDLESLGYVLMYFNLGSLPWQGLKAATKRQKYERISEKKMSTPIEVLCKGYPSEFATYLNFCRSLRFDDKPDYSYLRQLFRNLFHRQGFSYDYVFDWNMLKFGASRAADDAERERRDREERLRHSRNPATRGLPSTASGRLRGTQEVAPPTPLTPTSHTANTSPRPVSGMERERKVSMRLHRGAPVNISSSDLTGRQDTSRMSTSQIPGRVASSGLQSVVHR

CCC(=O)N[C@H]1CC[C@@H](C(=O)N(C)c2ccc(-c3nc4ccccc4o3)cc2)C1 [BI 99179]
inactive: residual activity [1] 100% | residual activity [2] 100% | residual activity [3] 88% | inhibition [4] 12.1% | residual activity [5] 52% | residual activity [6] 88% | residual activity [7] 85% | residual activity [8] 72% | residual activity [9] 94% | residual activity [10] 100% | residual activity [11] 80% | residual activity [12] 100% | residual activity [13] 100% | residual activity [14] 93% | residual activity [15] 100% | residual activity [16] 89% | residual activity [17] 92% | inhibition [18] -2.15% | residual activity [19] 78% | residual activity [20] 100% | residual activity [21] 100% | residual activity [22] 87% | residual activity [23] 87% | residual activity [24] 88% | residual activity [25] 98% | residual activity [26] 96% | residual activity [27] 89% | residual activity [28] 91% | residual activity [29] 100% | residual activity [30] 100% | residual activity [31] 75% | residual activity [32] 74% | residual activity [33] 100% | residual activity [34] 100% | residual activity [35] 100% | residual activity [36] 77% | residual activity [37] 100% | residual activity [38] 97% | residual activity [39] 95% | residual activity [40] 100% | residual activity [41] 100% | residual activity [42] 99% | residual activity [43] 76% | residual activity [44] 97% | residual activity [45] 100%

CCC(=O)N[C@@H]1CC[C@H](C(=O)N(C)c2ccc(-c3nc4ccccc4o3)cc2)C1 [BI 99990]
inactive: residual activity [1] 100% | residual activity [2] 100% | residual activity [3] 100% | inhibition [4] 4.36% | residual activity [5] 60% | residual activity [6] 100% | residual activity [7] 100% | residual activity [8] 77% | residual activity [9] 100% | residual activity [10] 86% | residual activity [11] 95% | residual activity [12] 95% | residual activity [13] 88% | residual activity [14] 70% | residual activity [15] 95% | residual activity [16] 95% | residual activity [17] 84% | inhibition [18] -1.16% | residual activity [19] 100% | residual activity [20] 100% | residual activity [21] 100% | residual activity [22] 100% | residual activity [23] 100% | residual activity [24] 99% | residual activity [25] 100% | residual activity [26] 100% | residual activity [27] 100% | residual activity [28] 100% | residual activity [29] 100% | residual activity [30] 100% | residual activity [31] 100% | residual activity [32] 98% | residual activity [33] 100% | residual activity [34] 100% | residual activity [35] 100% | residual activity [36] 84% | residual activity [37] 100% | residual activity [38] 100% | residual activity [39] 100% | residual activity [40] 100% | residual activity [41] 100% | residual activity [42] 75% | residual activity [43] 84% | residual activity [44] 100% | residual activity [45] 100%
